For this experiment, the target named is T1, CCR2 (Homo sapiens, UniProt P41597).
T1 construct: Membranes were prepared from THP-1 cells; endogenous in cells; host or cells: THP-1 cells (membrane preparation)
T1 sequence (P41597 1-360 isoform P41597-2): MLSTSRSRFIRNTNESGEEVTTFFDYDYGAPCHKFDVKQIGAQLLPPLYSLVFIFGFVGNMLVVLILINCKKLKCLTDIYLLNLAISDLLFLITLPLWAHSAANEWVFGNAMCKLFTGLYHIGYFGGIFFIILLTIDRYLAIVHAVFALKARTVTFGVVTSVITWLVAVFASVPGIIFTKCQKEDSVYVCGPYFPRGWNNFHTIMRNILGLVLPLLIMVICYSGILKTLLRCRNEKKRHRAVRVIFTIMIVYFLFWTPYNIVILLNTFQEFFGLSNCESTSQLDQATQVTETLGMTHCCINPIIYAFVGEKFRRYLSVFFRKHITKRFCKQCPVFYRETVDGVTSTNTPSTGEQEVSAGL
The experiment can be described thus: CCR2 receptor membrane binding assay ([125I]MCP-1, THP-1 cell membranes, SPA beads). As to conditions: for remaining activity at 10 µM: read-out: CCR2 % ctrl @ 10 μM; for Ki: dissociation constant hKi, [125I]MCP-1 binding to THP-1 membranes. On the procedure:
The above exemplary substances have been tested for binding to CCR2 using a binding assay as outlined herein below:
THP-1 cells (human acute monocytic leukaemia cells) were cultured under standardized conditions at 37° C. and 5% CO2 in a humidified incubator. THP-1 cells were cultivated in RPMI 1640 medium (Gibco 21875) containing 1% MEM-NEAA (Gibso 11140) 2 mM L-glutamine, 1.5 g/L sodium bicarbonate, 4.5 g/L glucose, 10 mM HEPES and 1.0 mM sodium pyruvate, 90%; 10% fetal calf serum (FCS Gibco 10500-064).
Membranes were prepared from THP-1 cells. THP-1 cells were centrifuged at 300×g at 4° C. for 10 min. The cell pellet was resuspendet in Phosphate Buffer Saline (PBS, including 10 μM Pefabloc and a protease inhibitor mix ‘complete’, Boehringer Mannheim (1 tablet/50 ml)), to a concentration of […]. The membrane preparation was performed by disrupting the cells by nitrogen […] (at 50 bar, for 1 h) in a “Nitrogen Bombe” (Parr Instrument). Cell debris was removed by centrifugation (800×g at 4° C., 1 min). The supernatant was centrifuged at 80000×g, 4° C. for 30 min to sediment the cell membranes. Usually 50 mg of protein (Bradford assay) were yielded from 1×10E9 cells. The membranes were resuspendet in 25 mM HEPES, 25 mM MgCl2, 1 mM CaCl2, 10% Glycerine for storage in aliquots at −80° C. in 25 mM HEPES, 25 mM MgCl2, 1 mM CaCl2, 10% Glycerine and stored at −80° C.
Receptor Membrane Binding Assay:
Perkin Elmer NEX 332 Jod 125 MCP-1, Stock: 2200 Ci/mmol solved in 2000 μl assay buffer, stored at −20° C. THP-1 membrane were adjusted with 25 mM HEPES, pH 7.2; 5 mM MgCl2; 0.5 mM CaCl2; 0.2% BSA assay buffer to a concentration of […]. Amersham Biosciences PVT-WGA Beads (RPNQ0001) were adjusted with assay buffer to a concentration of 0.24 mg/30 μl. For preparation of the membrane-bead-suspension membranes and beads were incubated for 30 min at RT under rotation (60 rpm) with a ratio of 1:2. Test compounds dissolved in 100% DMSO to a concentration of 10 mM and are further diluted with 100% DMSO to 1 mM. All additional compound dilutions were obtained with assay buffer, final 1% DMSO. Compounds, membrane-bead-suspension and [125I]MCP-1 (ca. 25000 cpm/10 μl) were incubated. Bound radioactivity was determined by scintillation counter after 8 h. Determination of affinity of test compounds (dissociation constant hKi) is calculated by iterative fitting of experimental data using the “easy sys” program, which is based on law of mass action (Schittkowski K. (1994), Numerische Mathematik, Vol. 68, 129-142).

The mark [1] stands for this setting: @ 10 μM test compound, THP-1 membranes.

This is an account of results in patent publication US8835440B2, “Cyclic pyrimidin-4-carboxamides as CCR2 receptor antagonists for treatment of inflammation, asthma and COPD” (Boehringer Ingelheim International GmbH, priority 2008, dated 2014).

On to `Cc1c(NCc2ccc(Cl)c(Cl)c2)ncnc1C(=O)N1CCC(N2CCC3(CC2)CCN(S(C)(=O)=O)C3)CC1` [Example 188], for which the Ki worked out at 3930 nM. The remaining activity at 10 µM under setting [1] was 53%. Consider `CCc1c(NCCc2ccc(Cl)c(Cl)c2)ncnc1C(=O)N1CCC(N2CCOCC2)CC1` [Example 281], for which affinity was put at a Ki of 1010 nM. For the same compound, the remaining activity at 10 µM under setting [1] amounted to 24%. Take `Cc1c(NCC2CCC(C)C2)ncnc1C(=O)N1CCC(N2CCC(N(C)S(C)(=O)=O)CC2)CC1` (stereo not drawn) [Example 159bb]: the inhibitory constant (Ki) was 48 nM. `Cc1c(NCCOCc2ccccc2)ncnc1C(=O)N1CCC(N2CCC(O)CC2)CC1` [Example 18] returned a Ki of 3500 nM. Besides, the remaining activity at 10 µM under setting [1] is 52%. For `COC1CCN(C2CCN(C(=O)c3ncnc(NCC4CCCC(c5ccc(Cl)cc5)C4)c3C)CC2)CC1` (stereo not drawn) [Example 159lb], the Ki was 12 nM. On to `Cc1c(NC[C@H]2C[C@H](c3ccccc3)C2)ncnc1C(=O)N1CCC(N2CCC(N(C)S(C)(=O)=O)CC2)CC1` [Example 159ub], for which the Ki is 18 nM. `Cc1c(NCc2ccc(C(C)(C)C)cc2)ncnc1C(=O)N1CCC(N2CCC(Oc3ccccn3)CC2)CC1` [Example 204] showed a Ki of 123 nM. In addition, under setting [1], the remaining activity at 10 µM came out at 6%.

As to `Cc1c(NCC2Cc3ccccc32)ncnc1C(=O)N1CCC(N2CCC(O)CC2)CC1` (stereo not drawn) [Example 26], the affinity corresponds to a Ki of 914 nM. For the same compound, the remaining activity at 10 µM under setting [1] came out at 30%. Compound `Cc1c(NCC2CCN(c3ccccc3)C2)ncnc1C(=O)N1CCC(N2CCC(O)CC2)CC1` (stereo not drawn) [Example 20] showed a Ki of 303 nM. The remaining activity at 10 µM under setting [1] stood at 24%. The matching figures for `Cc1ccc(CCNc2ncnc(C(=O)N3CCC(N4CCCCC4)CC3)c2C)cc1C` [Example 143]: 422 nM and 8%.

In turn, `Cc1c(NCC2CCC(C(F)(F)F)CC2)ncnc1C(=O)N1CCC(N2CCC(O)CC2)CC1` (stereo not drawn) [Example 13] returned an inhibition constant (Ki) of 1330 nM. The remaining activity at 10 µM under setting [1] was found to be 42%. In the case of `Cc1c(NCc2ccc(C(F)(F)F)c(Cl)c2)ncnc1C(=O)N1CCC(N2CCC(O)CC2)CC1` [Example 116], the Ki worked out at 198 nM. Also, the remaining activity at 10 µM under setting [1] stood at 16%. The compound `Cc1c(NCc2ccc(C(C)(C)C)cc2)ncnc1C(=O)N1CCC(N[C@@H]2CCCN(S(C)(=O)=O)C2)CC1` [Example 228gd] registered a Ki of 1090 nM.

`Cc1c(NCc2ccc(Cl)c(Cl)c2)ncnc1C(=O)N1CCC(N(C)CC#N)CC1` [Example 182] registered an inhibitory constant (Ki) of 2990 nM. Moreover, the remaining activity at 10 µM under setting [1] is 53%. Consider `CCS(=O)(=O)NC1CCN(C2CCN(C(=O)c3ncnc(NCc4ccc(C(C)(C)C)cc4)c3C)CC2)CC1` [Example 264], for which the inhibitory constant (Ki) worked out at 41 nM. Besides, under setting [1], the remaining activity at 10 µM amounted to 3%. Regarding `Cc1c(NCCc2ccc(Cl)c(Cl)c2)ncnc1C(=O)N1CCC(N2CCC[C@H](O)C2)CC1` [Example 229], the inhibitory constant (Ki) was 1130 nM. The remaining activity at 10 µM under setting [1] worked out at 39%.

Consider `Cc1c(NCc2ccc(C(C)(C)C)cc2)ncnc1C(=O)N1CCC(N(C)C2CCCOC2)CC1` (stereo not drawn) [Example 228a], for which the inhibitory constant (Ki) came out at 1560 nM. Moreover, under setting [1], the remaining activity at 10 µM turned out to be 9%. Compound `CNC(=O)[C@@H]1CCN(C2CCN(C(=O)c3ncnc(NCc4ccc(Cl)c(Cl)c4)c3C)CC2)C1` [Example 260] gave a Ki of 493 nM. For the same compound, the remaining activity at 10 µM under setting [1] turned out to be 20%. `Cc1c(NCc2ccc(C(C)(C)C)cc2)ncnc1C(=O)N1CCC(N2CC(N(C)S(C)(=O)=O)C2)CC1` [Example 222]: the Ki amounted to 1310 nM. For the same compound, the remaining activity at 10 µM under setting [1] worked out at 31%.

In the case of `Cc1nc(NC[C@H]2CC[C@H](c3ccc(F)c(C)c3)O2)c(C)c(C(=O)N2CCC(N3CCC(N(C)S(C)(=O)=O)CC3)CC2)n1` [Example 159ya], the Ki was found to be 18 nM. Compound `CNC(=O)C1CCN(C2CCN(C(=O)c3ncnc(OCc4ccc(C(C)(C)C)cc4)c3C)CC2)CC1` [Example 300] showed an inhibitory constant (Ki) of 136 nM. Besides, the remaining activity at 10 µM under setting [1] is 8%. For the compound `Cc1c(NCC2CCC(C(C)C)CC2)ncnc1C(=O)N1CCC(N2CCC(N(C)S(C)(=O)=O)CC2)CC1` (stereo not drawn) [Example 159f], the affinity, expressed as Ki, was 14 nM. On the same count and under the same terms, then `Cc1ccc([C@H]2CC[C@@H](CNc3ncnc(C(=O)N4CCC(N5CCC(N(C)S(C)(=O)=O)CC5)CC4)c3C)O2)cc1` [Example 159jb], with 39 nM. Turning to `Cc1c(NCc2ccc(C(C)(C)C)cc2)ncnc1C(=O)N1CCC(N2CCC(CNS(C)(=O)=O)CC2)CC1` [Example 199], the affinity corresponds to a Ki of 534 nM. In addition, the remaining activity at 10 µM under setting [1] came to 9%.

Compound `Cc1c(NCc2ccc(C(C)(C)C)cc2)ncnc1C(=O)N1CCC(N2CCC(C#N)CC2)CC1` [Example 202] gave an inhibition constant Ki of 292 nM. Besides, the remaining activity at 10 µM under setting [1] is 7%. The matching figures for `Cc1c(NCCc2ccc(Cl)c(Cl)c2)ncnc1C(=O)N1CCC(N2CCC[C@@H](NS(C)(=O)=O)C2)CC1` [Example 174]: 2720 nM and 53%. Turning to `CCS(=O)(=O)N(C)C1CCN(C2CCN(C(=O)c3ncnc(NCc4ccc(Cl)c(Cl)c4)c3C)CC2)CC1` [Example 35], the affinity corresponds to a Ki of 24 nM. The remaining activity at 10 µM under setting [1] worked out at 5%. The matching figures for `CCS(=O)(=O)N(C)C1CCN(C2CCN(C(=O)c3ncnc(NCc4ccc(C(C)C)cc4)c3C)CC2)CC1` [Example 34]: 62 nM and 4%. `Cc1ccc(CNc2ncnc(C(=O)N3CCC(N4CCCCC4)CC3)c2C)cc1F` [Example 137] registered a Ki of 634 nM. Also, the “CCR2 % ctrl @ 10 μM” value (@ 10 μM test compound, THP-1 membranes, 10 µM) is given as 14 % ctrl.

For the compound `CNC(=O)C1CN(C2CCN(C(=O)c3ncnc(NCc4ccc(Cl)c(Cl)c4)c3C)CC2)C1` [Example 193], the inhibition constant Ki was 1540 nM. Besides, under setting [1], the remaining activity at 10 µM came out at 35%.

Turning to `CNC(=O)[C@H]1CCN(C2CCN(C(=O)c3ncnc(NCc4ccc(Cl)c(Cl)c4)c3C)CC2)C1` [Example 257], the affinity, expressed as Ki, was 186 nM. For the same compound, the remaining activity at 10 µM under setting [1] amounted to 14%. `CCS(=O)(=O)N(C)C1CCN(C2CCN(C(=O)c3ncnc(NCc4ccc(Cl)c(F)c4)c3C)CC2)CC1` [Example 39] had an inhibitory constant (Ki) of 36 nM. Besides, the remaining activity at 10 µM under setting [1] came to 2%. In turn, `Cc1c(NCc2ccc(Cl)c(F)c2)ncnc1C(=O)N1CCC(N2CCC(N(C)S(C)(=O)=O)CC2)CC1` [Example 63] displayed a Ki of 54 nM. Besides, the remaining activity at 10 µM under setting [1] came to 7%.

`Cc1c(NCC2CCCCC2)ncnc1C(=O)N1CCC(N2CCC(O)CC2)CC1` [Example 108] returned a Ki of 627 nM. Moreover, the remaining activity at 10 µM under setting [1] amounted to 20%.

`Cc1c(NCc2ccc(Cl)c(Cl)c2)ncnc1C(=O)N1CCC(N2CCCC(O)CC2)CC1` (stereo not drawn) [Example 245]: the affinity corresponds to a Ki of 555 nM. Moreover, the remaining activity at 10 µM under setting [1] was 15%. Regarding `Cc1c(NCC2CCCN(c3ccccc3)C2)ncnc1C(=O)N1CCC(N2CCC(N(C)S(C)(=O)=O)CC2)CC1` (stereo not drawn) [Example 155], the inhibitory constant (Ki) came to 76 nM. Under setting [1], the remaining activity at 10 µM was determined as 8%. Compound `Cc1c(NCc2ccc(C(C)(C)C)cc2)ncnc1C(=O)N1CCC(N2CCC3(CC2)CNC(=O)O3)CC1` [Example 228gj] gave an inhibitory constant (Ki) of 55 nM. `Cc1c(NCc2ccc(Cl)cc2)ncnc1C(=O)N1CCC(N2CCC(N(C)S(C)(=O)=O)CC2)CC1` [Example 49] displayed a Ki of 97 nM. Under setting [1], the remaining activity at 10 µM came out at 7%. `Cc1c(NC[C@H]2CC[C@H](c3cccc(C(F)(F)F)c3)O2)ncnc1C(=O)N1CCC(N2CCC(N(C)S(C)(=O)=O)CC2)CC1` [Example 159ha]: the Ki was found to be 27 nM.
